The structures appear in SMILES notation.

The test system of this assay is HBV. Kind of assay: HBV inhibition in HepAD38 cells, extracellular HBV DNA by direct qPCR. It counts as cell-based, hepatitis B virus. The conditions noted are these: Hepatitis B virus. (In general: Real-time PCR tracks product formation cycle by cycle.)

In general, inhibition refers to the share of the control response that was lost under treatment. In the case of `Nc1ccc(C(=O)Nc2cc(F)c(F)c(F)c2)cc1S(N)(=O)=O` [Example E3, 4-amino-3-sulfamoyl-N-(3,4,5-trifluorophenyl)benzamide], the inhibition at 0.5 µM (0.5 μM, HepAD38, 96 hours, read-out: HBV inhibition % (conc μM)) is > 50%.

The EC50 is the concentration that produces a half-maximal response. Take `Cc1cc(N)c(S(N)(=O)=O)cc1C(=O)Nc1cc(F)c(F)c(F)c1` [Example E17, 4-amino-2-methyl-5-sulfamoyl-N-(3,4,5-trifluorophenyl)benzamide]: the 50% effective concentration (EC50) (HepAD38, 8-point dose-response, read-out: HBV inh EC50) is < 1000 nM.

The values above are taken from patent publication US20210276967A1 (OSPEDALE SAN RAFFAELE S.R.L., priority 2018, published 2021).
